This note sets out measurements from patent publication EP1074549B1, “Tetrahydro-benzo(d)azepines and their use as antagonists at metabotropic glutamate receptors” (F. HOFFMANN-LA ROCHE AG, priority 1999, dated 2001).

Test [1] concerns the target T1, rat mGluR1a receptor (Rattus norvegicus, UniProt P23385).
T1 construct: expressed in transfected cells; host or cells: HEK 293 cells (transient transfection), membrane preparation
Kind of test: functional assay for the characterization of mGluR 1 antagonistic properties ([Ca2+]i measurement, FLIPR). The format is cell-based. The following applies: mGluR1a transfected HEK-EBNA cells; 10 µM glutamate as agonist; antagonists applied 5 minutes prior to agonist; read-out: F-IC 50. The protocol: a) functional assay for the characterization of mGluR 1 antagonistic properties
cDNA encoding rat mGluR1a receptor obtained from Prof. S. Nakanishi (Kyoto, Japan) was transiently transfected into HEK-EBNA cells using a procedure described by Schlaeger et. al., New Dev. New Appl. Anim. Cell Techn., Proc. ESACT Meet., 15th ( 1998), 105-112 and 117-120. [Ca^2+]i measurements were performed on mGluR1a transfected HEK-EBNA cells after incubation of the cells with Fluo-3 AM (0.5 µM final concentration) for 1 hour at 37 °C followed by 4 washes with assay buffer (DMEM supplemented with Hank's salt and 20 mM HEPES. [Ca^2+]i measurements were done using a fluorometric imaging plate reader (FLIPR, Molecular Devices Corporation, La Jolla, CA, USA). 10 µM glutamate as agonist was used to evaluate the potency of the antagonists.
Increasing concentrations of antagonists were applied to the cells 5 minutes prior to the application of the agonist. The inhibition (antagonists) curves were fitted with a four parameter logistic equation giving IC50, and Hill coefficient using the iterative nonlinear curve fitting software Origin (Microcal Software Inc., Northampton, MA, USA).

The target in test [2] is T1, rat mGluR1a receptor. In words: binding assay for the characterization of mGluR 1 antagonistic properties (tritiated radioligand displacement). The following applies: membranes from HEK 293 cells transfected with rat mGluR1a; tritiated 1-ethyl-2-methyl-6-oxo-4-(1,1,2-tritritio-1,2,4,5-tetrahydro-benzo[d]azepin-3-yl)-1,6-dihydro-pyrimidine-5-carbonitrile at 3 nM; 1 hour at room temperature; read-out: B-IC 50. The protocol:
b) binding assay for the characterization of mGluR 1 antagonistic properties
Binding assay with tritiated 1-ethyl-2-methyl-6-oxo-4-(1,1,2-tritritio-1,2,4,5-tetrahydro-benzo[d]azepin-3-yl)-1,6-dihydro-pyrimidine-5-carbonitrile: HEK 293 cells were transiently transfected with the rat mGluR1a receptor. The cells were collected and washed 3 times with PBS. The cell pellets were frozen at -80 °C. Membranes were prepared from HEK 293 cells transfected with the rat mGluR1a receptor and used in the binding experiments at 10 µg proteins per assay after resuspension in a HEPES NaOH 20mM, pH=7.4 binding buffer. 1-Ethyl-2-methyl-6-oxo-4-(1,1,2-tritritio-1,2,4,5-tetrahydro-benzo[d]azepin-3-yl)-1,6-dihydro-pyrimidine-5-carbonitrile (S.A 33.4Ci/mmol) was used at 3 nM final concentration. The incubation with variable concentrations of potential inhibitors was performed for 1 hour at room temperature, the incubate was then filtered onto GF/B glass fiber filter preincubated 1 hour in PEI 0,1% and washed 3 times with 1ml of cold binding buffer. The radioactivity retained on the unifilter 96 was counted using a Topcount β counter. After correction for non specific binding the data were normalized and the IC50 value calculated using a 4 parameters logistic equation which was fitted to the inhibition curve.

T1 sequence (P23385 19-1199): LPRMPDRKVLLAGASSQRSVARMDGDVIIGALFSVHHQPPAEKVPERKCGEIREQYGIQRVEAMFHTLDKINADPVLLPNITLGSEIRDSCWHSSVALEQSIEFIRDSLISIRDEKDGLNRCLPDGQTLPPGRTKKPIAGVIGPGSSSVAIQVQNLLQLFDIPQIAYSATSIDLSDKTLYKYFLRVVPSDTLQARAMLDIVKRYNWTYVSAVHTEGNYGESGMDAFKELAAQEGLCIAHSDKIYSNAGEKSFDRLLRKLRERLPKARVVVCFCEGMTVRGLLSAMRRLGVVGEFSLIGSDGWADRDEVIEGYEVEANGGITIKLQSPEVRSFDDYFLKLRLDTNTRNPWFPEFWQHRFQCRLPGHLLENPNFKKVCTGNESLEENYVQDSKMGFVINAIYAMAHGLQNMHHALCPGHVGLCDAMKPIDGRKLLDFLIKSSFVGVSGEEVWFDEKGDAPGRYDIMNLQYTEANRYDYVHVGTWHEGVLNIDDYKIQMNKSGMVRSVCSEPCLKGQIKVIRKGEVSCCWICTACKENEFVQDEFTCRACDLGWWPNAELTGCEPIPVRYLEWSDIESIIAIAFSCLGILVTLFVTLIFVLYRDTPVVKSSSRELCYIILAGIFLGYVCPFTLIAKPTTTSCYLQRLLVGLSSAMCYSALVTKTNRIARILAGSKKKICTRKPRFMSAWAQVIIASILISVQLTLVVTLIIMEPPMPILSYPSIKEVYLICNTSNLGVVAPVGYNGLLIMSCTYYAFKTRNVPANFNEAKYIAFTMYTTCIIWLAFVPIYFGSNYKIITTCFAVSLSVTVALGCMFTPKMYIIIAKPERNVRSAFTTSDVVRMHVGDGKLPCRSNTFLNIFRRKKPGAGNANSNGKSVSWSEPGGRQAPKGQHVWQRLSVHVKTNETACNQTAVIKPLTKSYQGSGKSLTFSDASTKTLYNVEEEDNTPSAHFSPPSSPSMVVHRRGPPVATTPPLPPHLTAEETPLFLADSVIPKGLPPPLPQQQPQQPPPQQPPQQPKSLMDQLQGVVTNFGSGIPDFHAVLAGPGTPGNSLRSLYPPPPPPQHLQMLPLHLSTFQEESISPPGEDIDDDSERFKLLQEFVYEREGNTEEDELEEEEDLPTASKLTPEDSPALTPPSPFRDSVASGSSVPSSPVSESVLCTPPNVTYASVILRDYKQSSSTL

As for `Cc1nc(N2CCc3ccccc3CC2)c([N+](=O)[O-])c(=O)n1CC(F)(F)F` [Example 11, 2-Methyl-5-nitro-6-(1,2,4,5-tetrahydro-benzo[d]azepin-3-yl)-3-(2,2,2-trifluoro-ethyl)-3H-pyrimidin-4-one], the IC50 was 8 nM at rat mGluR1a receptor [1] and 18 nM at rat mGluR1a receptor [2].
The corresponding values for `Cc1nc(N2CCc3ccccc3CC2)c(C#N)c(=O)[nH]1` [Example 17, 2-Methyl-6-oxo-4-(1,2,4,5-tetrahydro-benzo[d]azepin-3-yl)-1,6-dihydro-pyrimidine-5-carbonitrile] are 88 nM and 330 nM.
The corresponding values for `CCNc1nc(N2CCc3ccccc3CC2)c(C#N)c(=O)[nH]1` [Example 25, 2-Ethylamino-6-oxo-4-(1,2,4,5-tetrahydro-benzo[d]azepin-3-yl)-1,6-dihydro-pyrimidine-5-carbonitrile] are 5 nM and 15 nM.
The corresponding values for `CCn1c(N)nc(N2CCc3ccccc3CC2)c(C#N)c1=O` [Example 30, 2-Amino-1-ethyl-6-oxo-4-(1,2,4,5-tetrahydro-benzo[d]azepin-3-yl)-1,6-dihydro-pyrimidine-5-carbonitrile] are 9 nM and 3 nM.
Consider `Cc1nc(N2CCc3ccccc3CC2)c(C#N)c(=O)n1CC(F)(F)F` [Example 78, 2-Methyl-6-oxo-4-(1,2,4,5-tetrahydro-benzo[d]azepin-3-yl)-1-(2,2,2-trifluoro-ethyl)-1,6-dihydro-pyrimidine-5-carbonitrile], for which the figures for the IC50 at rat mGluR1a receptor [1] and at rat mGluR1a receptor [2] were 26 nM and 11 nM, respectively.
As for `N#Cc1c(N2CCc3ccccc3CC2)nc2n(c1=O)CCC2` [Example 126, 4-Oxo-2-(1,2,4,5-tetrahydro-benzo[d]azepin-3-yl)-4,6,7,8-tetrahydro-pyrrolo[1,2-a]pyrimidine-3-carbonitrile], the IC50 at rat mGluR1a receptor [1] turned out to be 100 nM; at rat mGluR1a receptor [2], 720 nM.
Taken in the same sequence, the figures for `CCn1c(C)nc(N2CCc3ccc(F)cc3CC2)c([N+](=O)[O-])c1=O` [Example 132, 3-Ethyl-6-(7-fluoro-1,2,4,5-tetrahydro-benzo[d]azepin-3-yl)-2-methyl-5-nitro-3H-pyrimidin-4-one] were 14 nM and 80 nM.
The corresponding values for `CCn1c(NC=O)nc(N2CCc3ccccc3CC2)c(C#N)c1=O` [Example 154, N-[5-cyano-1-ethyl-6-oxo-4-(1,2,4,5-tetrahydro-benzo[d]azepin-3-yl)-1,6-dihydro-pyrimidin-2-yl]-formamide] are 210 nM and 10 nM.
Taken in the same sequence, the figures for `N#Cc1c(OCC(F)(F)F)nc(NCCCN2CCOCC2)nc1N1CCc2ccccc2CC1` [Example 174, 2-(3-Morpholin-4-yl-propylamino)-4-(1,2,4,5-tetrahydro-benzo[d]azepin-3-yl)-6-(2,2,2-trifluoro-ethoxy)-pyrimidine-5-carbonitrile] were 970 nM and 88 nM.
As to `N#Cc1c(OCC(F)(F)F)nc(NCCO)nc1N1CCc2ccccc2CC1` [Example 190, 2-(2-Hydroxy-ethylamino)-4-(1,2,4,5-tetrahydro-benzo[d]azepin-3-yl)-6-(2,2,2-trifluoro-ethoxy)-pyrimidine-5-carbonitrile], the IC50 at rat mGluR1a receptor [1] was 200 nM; at rat mGluR1a receptor [2], 7 nM.
Taken in the same sequence, the figures for `CNn1c(C)nc(N2CCc3ccccc3CC2)c(C#N)c1=O` [Example 214, 2-Methyl-1-methylamino-6-oxo-4-(1,2,4,5-tetrahydro-benzo[d]azepin-3-yl)-1,6-dihydro-pyrimidine-5-carbonitrile] were 120 nM and 20 nM.
Taken in the same sequence, the figures for `Cc1nc(N2CCc3ccccc3CC2)c(C#N)c(=O)n1OCC(F)(F)F` [Example 220, 2-Methyl-6-oxo-4-(1,2,4,5-tetrahydro-benzo[d]azepin-3-yl)-1-(2,2,2-trifluoro-ethoxy)-1,6-dihydro-pyrimidine-5-carbonitrile] were 38 nM and 2 nM.
On to `CSc1nc(N)nc(N2CCc3ccccc3CC2)c1C#N` [Example 249, 2-Amino-4-methylsulfanyl-6-(1,2,4,5-tetrahydro-benzo[d]azepin-3-yl)-pyrimidine-5-carbonitrile], for which the figures for the IC50 at rat mGluR1a receptor [1] and at rat mGluR1a receptor [2] were 23 nM and 11 nM, respectively.
